Data from ChEMBL document CHEMBL1139959, “Optimization of triaryl bis-sulfones as cannabinoid-2 receptor ligands” (Bioorg Med Chem Lett, 2007).

What was measured:
Homo sapiens = species on record: Homo sapiens; assay: Selectivity for CB1 receptor over CB2 receptor
[1] = target: Cannabinoid receptor 2 (Homo sapiens) (UniProt P34972); assay: Binding affinity to CB2 receptor
in vivo = conditions: rat, plasma, po, 10 mg/kg
Description: AUC in rat at 10 mg/kg, po after 6 hrs

Cannabinoid receptor 2 (Homo sapiens), sequence (P34972 whole entry, looked up): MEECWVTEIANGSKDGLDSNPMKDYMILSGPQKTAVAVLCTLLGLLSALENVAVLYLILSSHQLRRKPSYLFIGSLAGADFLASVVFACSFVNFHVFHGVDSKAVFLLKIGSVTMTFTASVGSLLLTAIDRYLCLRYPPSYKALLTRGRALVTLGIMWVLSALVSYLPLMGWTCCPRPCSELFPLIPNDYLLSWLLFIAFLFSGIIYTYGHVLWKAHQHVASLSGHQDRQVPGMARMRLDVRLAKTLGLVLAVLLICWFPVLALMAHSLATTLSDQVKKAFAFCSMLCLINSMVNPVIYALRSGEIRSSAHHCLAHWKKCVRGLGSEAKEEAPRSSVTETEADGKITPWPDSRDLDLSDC

Row | SMILES | Ratio Ki (Homo sapiens) | Ki [1] [nM] | AUC at 6 h (in vivo) [µM·h]
1 | CCCS(=O)(=O)c1cc(Cl)ccc1S(=O)(=O)c1ccc([C@H](C)NS(C)(=O)=O)cc1 | 57 |  | 
2 | C[C@H](NC(=O)C(F)(F)F)c1ccc(S(=O)(=O)c2ccc(Cl)cc2S(=O)(=O)c2ccccc2F)cc1 | 784 |  | 
3 | C[C@H](NS(=O)(=O)C(F)(F)F)c1ccc(S(=O)(=O)c2ccccc2S(=O)(=O)c2ccccc2F)cc1 | 426 |  | 
4 | C[C@H](NS(=O)(=O)C(F)(F)F)c1ccc(S(=O)(=O)c2ccc(Cl)cc2S(=O)(=O)c2c(N)cccc2F)cc1 | 1190 |  | 
5 | C[C@H](NS(C)(=O)=O)c1ccc(S(=O)(=O)c2ccc(Cl)cc2S(=O)(=O)c2cccc3cccnc23)cc1 | 31 |  | 
6 | C[C@H](N)c1ccc(S(=O)(=O)c2ccc(Cl)cc2S(=O)(=O)c2ccccc2F)cc1 | 14 |  | 
7 | C[C@H](NS(=O)(=O)C(F)(F)F)c1ccc(S(=O)(=O)c2ccc(Cl)cc2S(=O)(=O)N2CCOCC2)cc1 | 99 | 192 | 
8 | C[C@H](NS(=O)(=O)C(F)(F)F)c1ccc(S(=O)(=O)c2ccc(O)cc2S(=O)(=O)c2ccccc2F)cc1 | 1570 |  | 
9 | C[C@H](NS(=O)(=O)C(F)(F)F)c1ccc(S(=O)(=O)c2ccc(Cl)cc2S(=O)(=O)c2c(F)cccc2NC2CC2)cc1 | 688 | 14.4 | 
10 | C[C@H](NS(C)(=O)=O)c1ccc(S(=O)(=O)c2ccc(Cl)cc2S(=O)(=O)c2ccccc2F)cc1 | 4390 |  | 6.33
11 | COCCOc1ccc(S(=O)(=O)c2ccc([C@H](C)NS(=O)(=O)C(F)(F)F)cc2)c(S(=O)(=O)c2ccccc2F)c1 | 1600 | 2.5 | 
12 | C[C@H](NS(=O)(=O)C(F)(F)F)c1ccc(S(=O)(=O)c2ccc(Cl)cc2S(=O)(=O)c2ccccn2)cc1 | 1150 | 3.6 | 
13 | C[C@H](NS(=O)(=O)C(F)(F)F)c1ccc(S(=O)(=O)c2ccc(Cl)cc2S(=O)(=O)N2CCCCC2)cc1 | 231 | 58 | 
14 | Cc1occc1S(=O)(=O)c1cc(Cl)ccc1S(=O)(=O)c1ccc([C@H](C)NS(C)(=O)=O)cc1 | 538 | 129 | 
15 | CCNC(=O)N[C@@H](C)c1ccc(S(=O)(=O)c2ccc(Cl)cc2S(=O)(=O)c2ccccc2F)cc1 |  | > 10000 | 
16 | C[C@H](NCCC(F)(F)F)c1ccc(S(=O)(=O)c2ccc(Cl)cc2S(=O)(=O)c2ccccc2F)cc1 | 105 |  | 
17 | C[C@H](NS(C)(=O)=O)c1ccc(S(=O)(=O)c2ccc(Cl)cc2S(=O)(=O)NS(C)(=O)=O)cc1 | 36 | 2750 | 
18 | C[C@H](NS(=O)(=O)C(F)(F)F)c1ccc(S(=O)(=O)c2ccc(C(F)(F)F)cc2S(=O)(=O)c2ccccc2F)cc1 | 2080 |  | 
19 | CCOc1ccc(S(=O)(=O)c2ccc([C@H](C)NS(=O)(=O)C(F)(F)F)cc2)c(S(=O)(=O)c2ccccc2F)c1 | 1960 | 0.9 | 

Row | SMILES | Ratio Ki (Homo sapiens) | Ki [1] [nM] | AUC at 6 h (in vivo) [µM·h]
20 | C[C@H](NS(=O)(=O)C(F)(F)F)c1ccc(S(=O)(=O)c2ccc(Cl)cc2S(=O)(=O)c2ncccn2)cc1 | 859 | 21 | 
21 | C[C@H](NS(=O)(=O)C(F)(F)F)c1ccc(S(=O)(=O)c2ccc(Cl)cc2S(=O)(=O)c2c(F)cccc2F)cc1 | 642 | 5.8 | 
22 | C[C@H](NS(=O)(=O)C(F)(F)F)c1ccc(S(=O)(=O)c2ccc(NC3CC3)cc2S(=O)(=O)c2ccccc2F)cc1 | 66 | 4.9 | 
23 | CC(=O)N[C@@H](C)c1ccc(S(=O)(=O)c2ccc(Cl)cc2S(=O)(=O)c2ccccc2F)cc1 | 250 | 60.7 | 
24 | C[C@H](NS(=O)(=O)C(F)(F)F)c1ccc(S(=O)(=O)c2ccc(Cl)cc2S(=O)(=O)NC(C)(C)C)cc1 | 123 | 136 | 
25 | C[C@H](NS(C)(=O)=O)c1ccc(S(=O)(=O)c2ccc(Cl)cc2S(=O)(=O)c2ccccn2)cc1 | 4400 |  | 
26 | C[C@H](NS(=O)(=O)C(F)(F)F)c1ccc(S(=O)(=O)c2ccc(C3CC3)cc2S(=O)(=O)c2ccccc2F)cc1 | 2240 | 1.4 | 
27 | Cc1ccc(S(=O)(=O)c2ccc([C@H](C)NS(=O)(=O)C(F)(F)F)cc2)c(S(=O)(=O)c2ccccc2F)c1 | 2290 | 1.1 | 
28 | C[C@H](NS(=O)(=O)C(F)(F)F)c1ccc(S(=O)(=O)c2ccc(OC(F)(F)F)cc2S(=O)(=O)c2ccccc2F)cc1 | 525 |  | 
29 | C[C@H](NCC(F)(F)F)c1ccc(S(=O)(=O)c2ccc(Cl)cc2S(=O)(=O)c2ccccc2F)cc1 | 325 |  | 
30 | C[C@H](NS(C)(=O)=O)c1ccc(S(=O)(=O)c2ccc(Cl)cc2S(=O)(=O)c2cccc[n+]2[O-])cc1 | 840 |  | 
31 | C[C@H](NS(C)(=O)=O)c1ccc(S(=O)(=O)c2ccc(Cl)cc2S(=O)(=O)C2CCCCC2)cc1 | 345 | 8.9 | 
32 | C[C@H](NS(C)(=O)=O)c1ccc(S(=O)(=O)c2ccc(Cl)cc2S(=O)(=O)N(C)C)cc1 | 58 |  | 
33 | CNc1cccc(F)c1S(=O)(=O)c1cc(Cl)ccc1S(=O)(=O)c1ccc([C@H](C)NS(=O)(=O)C(F)(F)F)cc1 | 212 |  | 
34 | C[C@H](NS(=O)(=O)C(F)(F)F)c1ccc(S(=O)(=O)c2ccc(N)cc2S(=O)(=O)c2ccccc2F)cc1 | 170 |  | 
35 | C[C@H](NS(=O)(=O)C(F)(F)F)c1ccc(S(=O)(=O)c2ccc(Cl)cc2S(=O)(=O)c2c(F)cccc2N2CCOCC2)cc1 | 18 |  | 
36 | C[C@H](NS(=O)(=O)C(F)(F)F)c1ccc(S(=O)(=O)c2ccc(N3CCNCC3)cc2S(=O)(=O)c2ccccc2F)cc1 | 31 |  | 
37 | C[C@H](NS(=O)(=O)C(F)(F)F)c1ccc(S(=O)(=O)c2ccc(Cl)cc2S(=O)(=O)c2c(F)cccc2N(C)C)cc1 | 60 | 115 | 
38 | CNS(=O)(=O)c1cc(Cl)ccc1S(=O)(=O)c1ccc([C@H](C)NS(C)(=O)=O)cc1 | 64 |  | 
